# Data reported in patent US20060020110A1, “Synthetic peptides that bind to the hepatitis B virus core and E antigens” (priority 2000, published 2006).
# Legend:
# [1] = system: B cell - mediated antigen presentation of HBcAg to experienced T cells; assay: Inhibition of B cell-mediated antigen presentation of HBcAg to experienced T cells; assay type: cell-based, Balb/c mice
# Protocol: A characterization assay that was used to evaluate the ability of a binding partner to modulate a host immune system response to HBV was conducted as follows. Groups of Balb/c mice were immunized subcutaneously with 20 μg HBcAg. Ten days later, draining lymph nodes were harvested and experienced CD4^+ T cells were purified using anti-CD4 coated magnetic beads (Dynal A S, Oslo, Norway) according to the manufacturers instructions. Naïve B cells were obtained from syngeneic mice, which had not been immunized. These B cells were used as antigen presenting cells in the characterization assay.
# The ability of the different mAbs and peptides to block B cell uptake and antigen presentation of HBcAg-peptides to HBcAg-specific CD4+ T cells was then tested in vitro. The cell populations were mixed at a B/T cell ratio of 1:5 and added at a final concentration of approximately 2.5×10^5 to 5.0×10^5 cells per well in a 96 well microplate. Approximately, 20 μg of HBcAg was preincubated with the binding partner. The binding partner mixtures were then added to the cells and the plates were incubated for 26 to 96 hours at 37° C. The effect of the binding partners on T cell proliferation was determined by monitoring [^3H] thymidine incorporation.
# serum HBeAg = molecular target: T1, serum HBeAg (Hepatitis B virus genotype D subtype ayw, UniProt P0C573); assay: In vivo aggregation of serum HBeAg in HBeAg-transgenic mice; settings: second group of experiments, i.p., final volume 0.5 ml
# T1 construct: two HBeAg-transgenic mice; from tissue; host or cells: serum of HBeAg-transgenic mice (from Dr. David R Milich, The Scripps Research Institute)
# T1 sequence (P0C573 20-183): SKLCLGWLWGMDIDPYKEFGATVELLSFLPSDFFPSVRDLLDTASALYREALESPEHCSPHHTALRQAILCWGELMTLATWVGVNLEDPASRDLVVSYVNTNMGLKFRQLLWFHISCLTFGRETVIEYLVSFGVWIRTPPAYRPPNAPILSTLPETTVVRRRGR
# Protocol: By using an animal model of HBV infection, the therapeutic efficacy of a specificity exchanger directed to HBV was determined. In a first group of experiments, two HBeAg-transgenic mice (obtained from Dr. David R Milich, The Scripps Research Institute, La Jolla, Calif.) were injected ip. with 500 μl of undiluted hybridoma supernatants. The mice were then bled on day zero, two, six and nine post-injection. Sera were then tested for the change in serum HBeAg levels as determined by EIA (Sorin Biomedica, Saluggia, Italy).
# mAb specific for HSV gG2 = assay: gG2 mAb binding to fusion peptide on solid phase
# Text: (§1) ID. […] The specificity exchangers provided in SEQ. ID. […] Similarly, the specificity exchangers provided in SEQ. ID.
# HBeAg = molecular target: T2, HBeAg (Hepatitis B virus genotype D subtype ayw, UniProt P0C573); assay: Redirection of HSV gG2 mAb to HBeAg on solid phase by fusion peptide in solution; assay type: binding
# T2 construct: containing nine residues of pre-core and the 150 first residues of HBcAg; made in house
# T2 sequence (P0C573 21-179): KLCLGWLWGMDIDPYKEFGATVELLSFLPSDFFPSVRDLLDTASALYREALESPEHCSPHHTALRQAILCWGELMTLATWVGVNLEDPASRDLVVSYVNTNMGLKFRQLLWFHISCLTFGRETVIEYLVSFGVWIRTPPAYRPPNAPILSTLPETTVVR
# Text: as §1
# HBcAg [2] = molecular target: T3, HBcAg (Hepatitis B virus genotype D subtype ayw, UniProt P03146)
# T3 sequence (P03146 whole entry): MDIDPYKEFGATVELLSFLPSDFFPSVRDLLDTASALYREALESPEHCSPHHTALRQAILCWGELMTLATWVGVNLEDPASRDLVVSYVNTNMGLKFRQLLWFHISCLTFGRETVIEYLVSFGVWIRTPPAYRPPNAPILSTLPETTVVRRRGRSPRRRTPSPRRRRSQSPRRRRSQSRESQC
# Protocol: To evaluate the efficacy of the specificity exchangers described above, several binding assays using a mAb specific for HSV gG2 were conducted. In one assay, the various specificity exchangers were coated onto microtiterplates and were bound with the mAb specific for HSV gG2. […] ID. […] In another assay, HBcAg was coated onto microtiter plates, specificity exchanger was added (20 μg/well), and the binding of the mAb specific for HSV gG2 was determined. […] ID. […] In another binding assay, HBeAg was coated onto microtiter plates, specificity exchanger was added (20 μg/well), and the binding of the mAb specific for HSV gG2 was determined. […] ID. […] The characterization assays used to evaluate binding partners can also be used and/or modified for the analysis of the specificity exchangers.
# HBcAg [3] = molecular target: T3, HBcAg; remark: listed apart in the source
# Protocol: Accordingly, the assay was conducted by mixing the antibody to be tested with the appropriate antigen and allowing binding to occur overnight. Subsequently, rabbit complement, which is consumed if the antibody binds the antigen and the complement, was added. To determine the amount of residual complement in the mixture, sheep erythrocytes and an antibody to sheep erythrocytes was added.
# [4] = fusion peptide in solution 20 μg/well
# [5] = specificity exchanger 20 μg/well
sequence,measurement,setting,value
VKLSCKASGYIFTSHRGGPEE [SEQ. ID. No. 74],Inhibition of B cell mediated antigen presentation of HBcAg to specific CD4+ T cells (in words),[1],inhibited B cell mediated antigen presentation
same,"cpm ([3H] thymidine incorporation, T cell proliferation)","[1]; T + B cells, 20 μg HBcAg preincubated with inhibitor, positive control 573, background 110",345 cpm
same,% inhibition of APC,"[1]; T + B cells, 20 μg HBcAg, calculated from cpm versus positive control and background proliferation",49%
same,Fold change in serum HBeAg levels as determined by EIA in HBeAg-Tg mice,serum HBeAg; day 0 from injection,1
same,Fold change in serum HBeAg levels as determined by EIA in HBeAg-Tg mice,serum HBeAg; day 1 from injection,1.5
same,Fold change in serum HBeAg levels as determined by EIA in HBeAg-Tg mice,serum HBeAg; day 3 from injection,2.3
same,Fold change in serum HBeAg levels as determined by EIA in HBeAg-Tg mice,serum HBeAg; day 6 from injection,2.3
same,Fold change in serum HBeAg levels as determined by EIA in HBeAg-Tg mice,serum HBeAg; day 9 from injection,3.3
same,gG2 mAb binding to indicated antigen on solid phase: fusion peptide,mAb specific for HSV gG2; no addition of fusion peptide in solution,0.884
same,Binding of mAb specific for HSV gG2 to coated specificity exchanger (in words),mAb specific for HSV gG2; specificity exchanger coated onto microtiterplates,appreciably bound the mAb
same,gG2 mAb binding to indicated antigen on solid phase: HBeAg,HBeAg; [4],1.727
same,Binding to immobilized HBeAg allowing binding of HSV gG2 mAb (in words),HBeAg; [5],appreciably bound the immobilized HBeAg
same,gG2 mAb binding to indicated antigen on solid phase: HBcAg,HBcAg [2]; [4],1.462
same,Binding to immobilized HBcAg allowing binding of HSV gG2 mAb (in words),HBcAg [2]; [5],appreciably bound the immobilized HBcAg
same,Complement binding of mAb-specificity exchanger-HBcAg complex (in words),HBcAg [3]; HSV mAb and specificity exchanger at equimolar ratios,able to bind complement
same,Ability to inhibit binding of mAb 4-2 to HBcAg (in words),HBcAg [3]; complement binding assay,appreciably inhibited the binding of mAb 4-2 to HBcAg
same,Ability to inhibit binding of mAb 9C8 to HBcAg (in words),HBcAg [3]; complement binding assay,unable to compete away bound mAb 9C8
